Reference: patent US20250188080A1, “IMIDAZOLONYLQUINOLINE COMPOUNDS AND THERAPEUTIC USES THEREOF” (Merck Patent GmbH, priority 2019, published 2025)

Tests used:
[1] = molecular target: T1, human phosphodiesterase-4A1A (Homo sapiens, UniProt P27815); experiment: PDE4A1A assay (Cerep); format: biochemical
T1 construct: purchased Cerep 4074; host or cells: Sf9 cells
Method: A commercially available assay of Cerep was used (Catalog ref. 4074; SOP no 1C1056), which is designed to evaluate the effects of compounds on the activity of the human phosphodiesterase-4A1A quantified by measuring the formation of 5′AMP from cAMP using a human recombinant enzyme expressed in Sf9 cells.
The test compound, reference compound or water (control) are added to a buffer containing 40 mM Tris/HCl (pH 7.4) and 8 mM MgCl2, 450 nM cAMP and 0.25 μCi [^3H]cAMP.
Thereafter, the reaction is initiated by addition of the enzyme (about 10 U) and the mixture is incubated for 20 min at 22° C.
(§1) For basal control measurements, the enzyme is omitted from the reaction mixture.
(§2) Following incubation SPA beads are added.
(§3) After 30 min at 22° C. under shaking, the amount of [^3H]5′AMP is quantified with a scintillation counter (Topcount, Packard).
(§4) The results are expressed as a percent inhibition of the control enzyme activity.
(§5) The standard inhibitory reference compound is Ro 20-1724, which is tested in each experiment at several concentrations to obtain an inhibition curve from which its IC50 value is calculated.

[2] = molecular target: human phosphodiesterase-2A1 (Homo sapiens, UniProt O00408); experiment: PDE2A1 assay (Cerep); format: biochemical
Method: A commercially available assay was used (Cerep, catalog ref. 4071, SOP no 1C1054), which is designed to evaluate the effects of compounds on the activity of the human phosphodiesterase-2A1 quantified by measuring the formation of 5′AMP from cAMP using a human recombinant enzyme expressed in Sf9 cells.
The test compound, reference compound or water (control) are added to a buffer containing 40 mM Tris/HCl (pH 7.4), 8 mM MgCl2 and 1.7 mM EGTA/NaOH, 1.8 μM cAMP and 1 μCi [^3H]cAMP.
Thereafter, the reaction is initiated by addition of the enzyme (about 2.5 U) and the mixture is incubated for 20 min at 22° C.
as §1, §2, §3, §4
The standard inhibitory reference compound is EHNA (erythro-9-(2-hydroxy-3-nonyl) adenine), which is tested in each experiment at several concentrations to obtain an inhibition curve from which its IC50 value is calculated.

[3] = molecular target: T2, human phosphodiesterase-4D2 (Homo sapiens, UniProt Q08499); experiment: PDE4D2 assay (Cerep); format: biochemical
T2 construct: purchased Cerep 4077; host or cells: Sf9 cells
Method: A commercially available assay of Cerep was used (Catalog ref. 4077; SOP no 1C1045) The assay is designed to evaluate the effects of test compounds on the activity of the human phosphodiesterase-4D2 quantified by measuring the formation of 5′AMP from cAMP using a human recombinant enzyme expressed in Sf9 cells.
The test compound, reference compound or water (control) are added to a buffer containing 40 mM Tris/HCl (pH 7.4) and 8 mM MgCl2, 450 nM cAMP and 0.0125 μCi [^3H]cAMP.
Thereafter, the reaction is initiated by addition of the enzyme (about 1.5 U) and the mixture is incubated for 20 min at 22° C.
as §1
Following incubation SPA (scintillation proximity assay) beads are added.
as §3, §4, §5

[4] = test system: CYP1A2, CYP2C8, CYP2C9, CYP2C19, CYP2D6, CYP3A4; experiment: Cytochrome P-450 enzymes (CYP) inhibition, P450-Glo; format: in vitro ADME; details: human
Method: In the human organism, drug substances are converted to water-soluble compounds by enzyme systems to facilitate their excretion. These enzyme systems include microsomal cytochrome P-450 enzymes, CYPs for short. The assay is designed to identify whether a compound may be a strong inhibitor for defined CYP isoforms. This involves the use of recombinant CYP isoforms and their reductase obtained by overexpression in insect cells infected with baculovirus. The CYP reaction is performed through […] of the CYP isoform being tested along with a luminometric CYP substrate under NADPH-regenerating conditions. The luminometric P450-Glo™ substrates are derivatives of beetle luciferin ((4S)-4,5-dihydro-2-(6-hydroxybenzothiazolyl)-4-thiazolecarboxylic acid or D-luciferin), a substrate of firefly luciferase from beetles. […] This allows enzyme activity to be quantified rapidly through the luminosity. […] The following commercially available screening systems/assays are used: P450-Glo™ CYP1A2 Screening System (Promega Corporation; V9770); P450-Glo™ CYP2C8 Assay (Promega Corporation; V8782); P450-Glo™ CYP2C9 Screening System (Promega Corporation; V9790); P450-Glo™ CYP2C19 Screening System (Promega Corporation; V9880); P450-Glo™ CYP2D6 Screening System (Promega Corporation; […]); P450-Glo™ CYP3A4 Screening System (Luciferin-PPXE) (Promega Corporation; V9910).

T1 sequence (P27815 1-647 isoform P27815-4): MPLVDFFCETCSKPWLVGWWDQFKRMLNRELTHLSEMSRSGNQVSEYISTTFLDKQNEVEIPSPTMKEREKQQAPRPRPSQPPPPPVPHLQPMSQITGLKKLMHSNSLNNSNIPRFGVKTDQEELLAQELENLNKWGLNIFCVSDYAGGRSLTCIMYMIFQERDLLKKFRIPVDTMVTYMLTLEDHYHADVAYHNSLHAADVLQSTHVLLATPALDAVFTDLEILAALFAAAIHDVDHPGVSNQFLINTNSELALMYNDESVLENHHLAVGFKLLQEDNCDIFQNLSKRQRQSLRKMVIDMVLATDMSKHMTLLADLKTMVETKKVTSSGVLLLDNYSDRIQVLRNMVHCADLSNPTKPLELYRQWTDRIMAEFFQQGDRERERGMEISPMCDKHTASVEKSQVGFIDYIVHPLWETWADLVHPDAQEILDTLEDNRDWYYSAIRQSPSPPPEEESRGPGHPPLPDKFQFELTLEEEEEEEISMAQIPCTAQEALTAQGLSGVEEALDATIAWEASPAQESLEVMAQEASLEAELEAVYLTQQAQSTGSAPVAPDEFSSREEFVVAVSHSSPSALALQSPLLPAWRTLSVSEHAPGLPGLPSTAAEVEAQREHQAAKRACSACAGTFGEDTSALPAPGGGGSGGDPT
T2 sequence (Q08499 303-809 limits assumed): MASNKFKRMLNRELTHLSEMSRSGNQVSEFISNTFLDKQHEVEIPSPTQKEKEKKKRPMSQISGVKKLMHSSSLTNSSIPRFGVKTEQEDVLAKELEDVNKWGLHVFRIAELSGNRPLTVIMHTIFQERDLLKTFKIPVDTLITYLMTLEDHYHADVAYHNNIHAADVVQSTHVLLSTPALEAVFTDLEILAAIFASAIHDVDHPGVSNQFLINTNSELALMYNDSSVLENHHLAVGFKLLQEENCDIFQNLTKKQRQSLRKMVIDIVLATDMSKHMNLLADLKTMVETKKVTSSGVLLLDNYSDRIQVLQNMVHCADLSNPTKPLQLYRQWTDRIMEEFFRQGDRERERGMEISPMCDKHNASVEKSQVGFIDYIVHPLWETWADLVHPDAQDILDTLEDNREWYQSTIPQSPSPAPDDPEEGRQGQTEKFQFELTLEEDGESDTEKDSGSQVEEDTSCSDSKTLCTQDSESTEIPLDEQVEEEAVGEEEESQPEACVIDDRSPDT

| Compound | IC50 [1] | IC50 [2] | IC50 [3] | IC50 [4] |
| --- | --- | --- | --- | --- |
| COc1cc2ncc3c(c2cc1-c1cn(C)nc1C)n(-c1c(F)cncc1OC)c(=O)n3C (single isomer, unassigned) [Compound 1, 8-(1,3-Dimethyl-1H-pyrazol-4-yl)-1-(Sa)-(3-fluoro-5-methoxy-pyridin-4-yl)-7-methoxy-3-methyl-1,3-dihydro-imidazo[4,5-c]quinolin-2-one] | 5200 nM | 2200 nM | 3000 nM | ≥ 20000 nM |
| COc1cc2ncc3c(c2cc1-c1cn(C)nc1C)n(-c1c(F)cncc1OC)c(=O)n3C (single isomer, unassigned) [Compound 2, 8-(1,3-Dimethyl-1H-pyrazol-4-yl)-1-(Ra)-(3-fluoro-5-methoxy-pyridin-4-yl)-7-methoxy-3-methyl-1,3-dihydro-imidazo[4,5-c]quinolin-2-one] | 930 nM | 3900 nM | 440 nM |  |
| COc1cc2ncc3c(c2cc1-c1cn(C)nc1C)n(-c1c(F)cncc1OC)c(=O)n3C [Compound Y, 8-(1,3-dimethyl-1H-pyrazol-4-yl)-1-(3-fluoro-5-methoxypyridin-4-yl)-7-methoxy-3-methyl-1,3-dihydroimidazo[4,5-c]quinolin-2-one, reference compound] | 1100 nM | 1400 nM | 600 nM |  |
